The values that follow come from publication PMC11601558, “SLC6A19 inhibition facilitates urinary neutral amino acid excretion and lowers plasma phenylalanine” (JCI Insight, 2024).

The structures appear in SMILES notation. Where “and” joins values, the source holds several entries; their conditions need not be identical. Equal values may be shown once. Read-outs that look alike come from different tables or passages of the source.

A short description of this data set: JN-170 plasma pharmacokinetics in Pah^enu2 mice, single oral dose. Further details: JN-170 plasma level (Fig 3a) / JN-170 plasma concentration: unit not given here. The format is in vivo, mouse. As to conditions: for JN-170 plasma level (Fig 3a) / concentration at 8 h / concentration at 1 h / concentration at 3 h: individual Pah^enu2 mice; for JN-170 plasma concentration: Fig S3a, Pahenu2 mice, individual animals; for concentration at 8 h / concentration at 1 h / concentration at 3 h: male, BTBR-Pah<enu2>/J (Pah^enu2), mouse, plasma, oral, read-out: JN-170 plasma level (Fig 3a). Here is the method: Male homozygous BTBR-Pah<enu2>/J (Pah^enu2) aged 10–13 weeks were purchased from Jackson Laboratory (no. 002232). Immediately before dosing, each animal’s bladder was manually emptied and a plasma sample was drawn. Animals were dosed by oral gavage with vehicle (10% DMSO, 20% 2-hydroxypropyl-β-cyclodextrin [Sigma-Aldrich]) followed by a 1-week washout prior to dosing with JN-170 at doses ranging from 50 to 250 mg/kg. Following dosing with vehicle or JN-170, animals were individually placed in metabolic cages to collect urine samples. After collection of each urine sample, cages were rinsed with ultra-pure water to recover residual analytes. Blood samples were collected predose as well as 1, 3, 8, 12, and 24 hours after dosing with vehicle or JN-170 into tubes with EDTA as a […], and plasma was separated by centrifuging samples at 2,200g for 5 minutes at 4°C. Throughout the study, mice had access to food and water ad libitum. Plasma and urine samples were stored at –80°C until processing.Ten-week-old male WT C57Bl/6J animals (Si Bei Fu Laboratory Animal Technology Co. Ltd.) were dosed either with vehicle or 50–250 mg/kg JN-170 by oral gavage and blood and urine samples were collected as described. All animals had unrestricted access to food and water during the study; C57Bl/6J were kept on rodent maintenance diet from Beijing Keao Xieli, Pah^enu2 mice were kept on Teklad diet no. T.2018.
Plasma sample analyses were carried out by liquid chromatography tandem mass spectrometry (LC-MS/MS). Plasma samples were mixed 1:1 with carbamazepine or ^13C6-Phe as internal standards for JN-170 and Phe, respectively. Plasma proteins were precipitated by adding 4 volumes of acetonitrile (ACN) and 0.1% formic acid (FA) followed by centrifugation for 5 minutes at 2,100g. Supernatants were diluted 1:1 in ACN and 0.1% FA. For JN-170, a Waters HSS T3 reversed phase column was used for separation using a binary gradient of 0.1% FA in water (mobile phase A) to 0.1% in ACN (mobile phase B). At a flow rate of 0.8 mL/min, the mobile phase gradient increased from an initial 25% phase B to 95% phase B over 30 seconds. After, 1.5 minutes, the gradient was returned to 25% mobile phase B. For detection of Phe, an Acquity UPLC ethylene bridged hybrid (BEH) amide column was used, with a binary gradient of 10 mM ammonium acetate in 95:5:1 H2O:ACN:FA (mobile phase A) to 10 mM ammonium acetate in 95:5:1 ACN:H2O:FA (mobile phase B). At a flow rate of 0.5 mL/min, the mobile phase gradient changed from an initial 100% phase B to 50% phase B over 2.1 minutes. It was returned to 100% phase B after 4 minutes. Analytes were detected using a Sciex API-5500 in multiple reaction monitoring mode using an electrospray ionization source in the positive ion mode with the following ion transitions: m/z 435.2/84.1 (JN-170), 237.1/194.1 (carbamazepine), 166.1/120.1 (Phe), 172.2/126.2 for (^13C6-Phe). Analyte concentrations were calculated with a 1/×^2 linear regression over a concentration range of 1 or 2 to 5,000 ng/mL for JN-170 and 0.05–100 ng/mL for Phe.

For the compound `N#Cc1ccc(-c2noc([C@]3(C(F)(F)F)CCN(C(=O)NCCC4(N)CC4)C3)n2)cc1` [JN-170], the “coverage above the in vitro IC75” value (50 mg/kg) is on record as “approximately 3 hours”. Also, the “JN-170 plasma level (Fig 3a)” value is, setting by setting: (50 mg/kg oral, 24 h) 8.45 and 26.4 and 9.59 and 19.9; (250 mg/kg oral, 1 h) 16600 (2×) and 17000 and 16300 and 17600; (250 mg/kg oral, 24 h) 125 and 63 and 72.6. Further, the JN-170 plasma concentration is 10400 and 12200 and 13800 and 8750 and 11500 and 12500 (time 1 h); 8500 and 9610 and 10900 and 8710 and 9900 and 11900 (time 3 h); 11000 and 6710 and 8280 and 8610 and 8480 and 9150 (time 8 h); 7430 and 5630 and 5750 and 12700 and 9060 and 6600 (time 12 h); 33.1 and 16 and 26.9 and 82.7 and 103 and 19.9 (time 24 h). Besides, the concentration at 8 h reads like this: (50 mg/kg, 50 mg/kg oral) 456 ng/mL; (100 mg/kg, 100 mg/kg oral) 2280 ng/mL; (200 mg/kg, 200 mg/kg oral) 8610 ng/mL; (250 mg/kg, 250 mg/kg oral) 11200 ng/mL. Besides, the concentration at 1 h is, setting by setting: (100 mg/kg, 100 mg/kg oral, 1 h) 5780 ng/mL; (200 mg/kg, 200 mg/kg oral, 1 h) 8750 ng/mL; (250 mg/kg, 250 mg/kg oral, 1 h) 18300 ng/mL. For the same compound, the concentration at 3 h was determined as 4240 ng/mL (100 mg/kg, 100 mg/kg oral); 8710 ng/mL (200 mg/kg, 200 mg/kg oral); 14800 ng/mL (250 mg/kg, 250 mg/kg oral).
